Assay results reported in patent publication US9249129B2, “Morpholino substituted urea derivatives as mTOR inhibitors” (CELLZOME LIMITED, priority 2010, dated 2016).
Like-named read-outs stand apart in the source and are kept apart here.

How the values were obtained:
[1] = molecular target: T1, DNA-dependent protein kinase (DNA-PK) (Homo sapiens, UniProt P78527); experiment: kinobeads assay, DNA-PK (dot blot detection); format: binding
T1 construct: endogenous in cells; host or cells: Jurkat cells (ATCC TIB-152, clone E6-1), lysate
Procedure, shortened: (§1)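 Jurkat cell lysate (5 mg/mL protein) incubated 2 h in the cold with test compound (9-step 1:3 series) and immobilized phenylthiazole/phenylmorpholin-chromen ligand beads. Bead-bound kinases eluted, detected by specific antibody dot blot with infrared readout; IC50 from dose-response curves.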

mTOR = molecular target: T2, mTOR (Homo sapiens, UniProt P42345); experiment: mTOR kinobeads assay (dot blot detection); format: binding
T2 construct: endogenous in cells; host or cells: Jurkat cells (ATCC TIB-152, clone E6-1), lysate
Procedure, shortened: as §1

PI3Kα = molecular target: T3, PI3Kα (Homo sapiens, UniProt P42336); experiment: kinobeads assay, PI3K alpha (dot blot detection); format: binding; settings: Table 4, read-out: Inhibition values (IC50) PI3Ka
T3 construct: endogenous in cells; host or cells: Jurkat cells (ATCC TIB-152) lysate, the only lysate described
T3 sequence (P42336 whole entry): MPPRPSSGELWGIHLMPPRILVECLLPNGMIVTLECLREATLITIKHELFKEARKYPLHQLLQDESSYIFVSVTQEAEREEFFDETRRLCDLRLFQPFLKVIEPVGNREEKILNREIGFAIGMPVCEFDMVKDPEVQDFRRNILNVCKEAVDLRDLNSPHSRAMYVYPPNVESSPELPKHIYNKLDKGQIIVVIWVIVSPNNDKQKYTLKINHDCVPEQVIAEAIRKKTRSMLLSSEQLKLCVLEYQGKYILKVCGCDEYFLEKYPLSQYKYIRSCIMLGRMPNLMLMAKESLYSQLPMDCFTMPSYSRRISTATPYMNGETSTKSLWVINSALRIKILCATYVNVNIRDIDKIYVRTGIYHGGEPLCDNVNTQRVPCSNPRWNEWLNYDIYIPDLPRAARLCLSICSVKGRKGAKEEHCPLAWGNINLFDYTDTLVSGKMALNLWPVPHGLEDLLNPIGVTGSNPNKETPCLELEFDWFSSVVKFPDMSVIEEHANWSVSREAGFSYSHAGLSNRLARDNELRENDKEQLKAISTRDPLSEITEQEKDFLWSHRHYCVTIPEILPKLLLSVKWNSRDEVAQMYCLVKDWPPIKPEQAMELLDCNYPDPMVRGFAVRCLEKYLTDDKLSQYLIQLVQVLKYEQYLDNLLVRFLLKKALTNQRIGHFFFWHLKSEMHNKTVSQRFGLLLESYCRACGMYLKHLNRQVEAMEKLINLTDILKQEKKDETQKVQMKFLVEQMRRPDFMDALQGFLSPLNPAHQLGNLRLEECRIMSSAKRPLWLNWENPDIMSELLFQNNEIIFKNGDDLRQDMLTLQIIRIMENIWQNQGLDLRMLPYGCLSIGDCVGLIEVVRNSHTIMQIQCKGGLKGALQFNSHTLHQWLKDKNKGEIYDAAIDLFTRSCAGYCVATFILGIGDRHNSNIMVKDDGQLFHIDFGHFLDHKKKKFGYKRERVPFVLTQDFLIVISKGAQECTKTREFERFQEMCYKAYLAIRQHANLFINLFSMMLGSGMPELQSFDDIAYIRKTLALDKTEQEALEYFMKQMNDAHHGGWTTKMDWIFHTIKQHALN
T3 sequence (P27986 whole entry partner): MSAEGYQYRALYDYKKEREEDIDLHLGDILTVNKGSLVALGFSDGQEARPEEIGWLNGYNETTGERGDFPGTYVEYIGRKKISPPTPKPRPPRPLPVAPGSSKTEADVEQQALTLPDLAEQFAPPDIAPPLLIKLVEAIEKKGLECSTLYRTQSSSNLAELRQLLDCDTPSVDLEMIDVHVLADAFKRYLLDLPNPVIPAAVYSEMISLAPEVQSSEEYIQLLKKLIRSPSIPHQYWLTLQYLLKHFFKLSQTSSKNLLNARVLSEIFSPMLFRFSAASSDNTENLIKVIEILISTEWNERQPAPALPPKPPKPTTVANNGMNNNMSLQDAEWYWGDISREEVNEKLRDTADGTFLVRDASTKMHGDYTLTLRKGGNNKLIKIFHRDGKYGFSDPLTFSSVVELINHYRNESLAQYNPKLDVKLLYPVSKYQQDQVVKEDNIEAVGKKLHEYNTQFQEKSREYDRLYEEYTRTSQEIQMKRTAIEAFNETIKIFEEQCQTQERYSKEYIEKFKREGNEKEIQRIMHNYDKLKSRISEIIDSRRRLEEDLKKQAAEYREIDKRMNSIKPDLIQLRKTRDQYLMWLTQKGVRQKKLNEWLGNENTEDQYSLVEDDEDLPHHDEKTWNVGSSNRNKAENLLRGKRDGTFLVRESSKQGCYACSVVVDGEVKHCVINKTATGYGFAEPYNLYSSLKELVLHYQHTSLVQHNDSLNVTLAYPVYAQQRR

PI3Kγ = molecular target: T4, PI3Kγ (Homo sapiens, UniProt P48736); experiment: kinobeads assay, PI3K gamma (dot blot detection); format: binding; settings: Table 4, read-out: Inhibition values (IC50) PI3Kg
T4 construct: endogenous in cells; host or cells: Jurkat cells (ATCC TIB-152) lysate, the only lysate described
T4 sequence (P48736 whole entry): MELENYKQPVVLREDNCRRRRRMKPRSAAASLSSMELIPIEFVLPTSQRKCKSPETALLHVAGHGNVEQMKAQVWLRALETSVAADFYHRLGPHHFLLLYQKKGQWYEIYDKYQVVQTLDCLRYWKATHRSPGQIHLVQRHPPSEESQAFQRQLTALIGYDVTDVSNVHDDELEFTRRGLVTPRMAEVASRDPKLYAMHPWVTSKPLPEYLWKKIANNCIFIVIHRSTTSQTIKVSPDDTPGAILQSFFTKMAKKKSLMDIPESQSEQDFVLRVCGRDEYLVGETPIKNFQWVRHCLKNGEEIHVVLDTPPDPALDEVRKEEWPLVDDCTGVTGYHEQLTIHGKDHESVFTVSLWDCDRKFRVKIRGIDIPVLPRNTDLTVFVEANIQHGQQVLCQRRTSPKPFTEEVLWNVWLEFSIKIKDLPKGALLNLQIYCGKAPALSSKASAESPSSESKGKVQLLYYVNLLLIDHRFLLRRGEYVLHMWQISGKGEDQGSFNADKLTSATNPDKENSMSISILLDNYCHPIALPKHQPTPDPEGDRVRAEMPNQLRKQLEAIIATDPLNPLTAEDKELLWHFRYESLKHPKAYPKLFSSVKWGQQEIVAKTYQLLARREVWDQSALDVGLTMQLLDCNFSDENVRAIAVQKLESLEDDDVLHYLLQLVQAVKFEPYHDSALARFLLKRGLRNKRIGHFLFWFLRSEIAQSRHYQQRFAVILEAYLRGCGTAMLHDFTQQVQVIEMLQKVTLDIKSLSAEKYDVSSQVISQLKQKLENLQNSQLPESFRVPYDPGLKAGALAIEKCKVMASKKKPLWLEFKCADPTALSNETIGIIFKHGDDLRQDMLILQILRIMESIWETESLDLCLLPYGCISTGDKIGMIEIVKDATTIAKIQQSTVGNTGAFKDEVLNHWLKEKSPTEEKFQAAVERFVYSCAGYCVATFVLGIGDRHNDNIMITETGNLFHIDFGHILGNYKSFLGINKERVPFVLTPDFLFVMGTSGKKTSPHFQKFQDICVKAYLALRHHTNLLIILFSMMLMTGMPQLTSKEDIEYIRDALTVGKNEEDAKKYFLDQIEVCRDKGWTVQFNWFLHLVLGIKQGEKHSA

[2] = tested on: S6RP serine-240/244 phosphorylation in HEK293T/17 cells; experiment: In vitro phospho-S6 cellular assay (pS6RP S240/244); format: cell-based; settings: Homo sapiens, Table 6, 2 hours, S6RP Ser240/244, read-out: pS6 (phospho-S6 cell assay data, activity level)
Procedure, shortened: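 HEK293T/17 cells in DMEM with 2% FCS treated with 8 compound concentrations (0.1% DMSO) for 2 h at 37 °C, then lysed. Phospho-S6RP Ser240/244 or phospho-Akt Ser473 quantified by MesoScale sandwich immunoassay with Sulfo-Tag detection; IC50 from variable-slope sigmoidal fit.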

PI3K delta (PI3Kd) = molecular target: T5, PI3K delta (PI3Kd) (Homo sapiens, UniProt O00329); experiment: kinobeads assay, PI3K delta (dot blot detection); format: binding
T5 construct: endogenous in cells; host or cells: Jurkat cells (ATCC TIB-152, clone E6-1), lysate
T5 sequence (O00329 whole entry): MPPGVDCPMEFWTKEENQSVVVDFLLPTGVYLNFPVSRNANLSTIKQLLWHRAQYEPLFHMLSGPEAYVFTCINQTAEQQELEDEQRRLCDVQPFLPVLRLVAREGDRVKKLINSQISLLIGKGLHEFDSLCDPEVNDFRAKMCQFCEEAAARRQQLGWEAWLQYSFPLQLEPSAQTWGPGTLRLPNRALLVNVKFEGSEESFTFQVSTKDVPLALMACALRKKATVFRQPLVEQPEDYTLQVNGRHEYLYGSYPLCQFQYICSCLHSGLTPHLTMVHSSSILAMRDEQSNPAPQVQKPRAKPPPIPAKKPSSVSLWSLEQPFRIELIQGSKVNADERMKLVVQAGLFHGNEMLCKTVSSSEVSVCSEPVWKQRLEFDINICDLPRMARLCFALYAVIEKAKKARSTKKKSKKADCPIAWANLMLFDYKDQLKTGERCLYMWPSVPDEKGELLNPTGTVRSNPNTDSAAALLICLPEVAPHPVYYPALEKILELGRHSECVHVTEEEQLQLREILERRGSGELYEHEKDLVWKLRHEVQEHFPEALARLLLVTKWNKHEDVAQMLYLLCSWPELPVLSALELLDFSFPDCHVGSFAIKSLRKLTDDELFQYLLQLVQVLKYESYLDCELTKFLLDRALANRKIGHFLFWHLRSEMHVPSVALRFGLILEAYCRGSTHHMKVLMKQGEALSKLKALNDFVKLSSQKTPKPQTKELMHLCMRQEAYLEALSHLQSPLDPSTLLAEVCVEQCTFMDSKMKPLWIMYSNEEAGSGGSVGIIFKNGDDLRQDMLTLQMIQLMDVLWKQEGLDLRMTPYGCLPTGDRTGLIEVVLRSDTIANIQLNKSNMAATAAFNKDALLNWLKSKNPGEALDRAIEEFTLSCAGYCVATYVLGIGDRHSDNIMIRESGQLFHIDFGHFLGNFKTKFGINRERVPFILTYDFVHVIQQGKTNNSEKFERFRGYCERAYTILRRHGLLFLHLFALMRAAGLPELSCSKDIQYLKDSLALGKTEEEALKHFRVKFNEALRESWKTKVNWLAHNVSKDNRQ
T5 sequence (P27986 whole entry partner): as the sequence (P27986 whole entry partner) above
Procedure, shortened: as §1

PI3Kβ = molecular target: T6, PI3Kβ (Homo sapiens, UniProt P42338); experiment: kinobeads assay, PI3K beta (dot blot detection); format: binding; settings: Table 4, read-out: Inhibition values (IC50) PI3Kb
T6 construct: endogenous in cells; host or cells: Jurkat cells (ATCC TIB-152) lysate, the only lysate described
T6 sequence (P42338 whole entry): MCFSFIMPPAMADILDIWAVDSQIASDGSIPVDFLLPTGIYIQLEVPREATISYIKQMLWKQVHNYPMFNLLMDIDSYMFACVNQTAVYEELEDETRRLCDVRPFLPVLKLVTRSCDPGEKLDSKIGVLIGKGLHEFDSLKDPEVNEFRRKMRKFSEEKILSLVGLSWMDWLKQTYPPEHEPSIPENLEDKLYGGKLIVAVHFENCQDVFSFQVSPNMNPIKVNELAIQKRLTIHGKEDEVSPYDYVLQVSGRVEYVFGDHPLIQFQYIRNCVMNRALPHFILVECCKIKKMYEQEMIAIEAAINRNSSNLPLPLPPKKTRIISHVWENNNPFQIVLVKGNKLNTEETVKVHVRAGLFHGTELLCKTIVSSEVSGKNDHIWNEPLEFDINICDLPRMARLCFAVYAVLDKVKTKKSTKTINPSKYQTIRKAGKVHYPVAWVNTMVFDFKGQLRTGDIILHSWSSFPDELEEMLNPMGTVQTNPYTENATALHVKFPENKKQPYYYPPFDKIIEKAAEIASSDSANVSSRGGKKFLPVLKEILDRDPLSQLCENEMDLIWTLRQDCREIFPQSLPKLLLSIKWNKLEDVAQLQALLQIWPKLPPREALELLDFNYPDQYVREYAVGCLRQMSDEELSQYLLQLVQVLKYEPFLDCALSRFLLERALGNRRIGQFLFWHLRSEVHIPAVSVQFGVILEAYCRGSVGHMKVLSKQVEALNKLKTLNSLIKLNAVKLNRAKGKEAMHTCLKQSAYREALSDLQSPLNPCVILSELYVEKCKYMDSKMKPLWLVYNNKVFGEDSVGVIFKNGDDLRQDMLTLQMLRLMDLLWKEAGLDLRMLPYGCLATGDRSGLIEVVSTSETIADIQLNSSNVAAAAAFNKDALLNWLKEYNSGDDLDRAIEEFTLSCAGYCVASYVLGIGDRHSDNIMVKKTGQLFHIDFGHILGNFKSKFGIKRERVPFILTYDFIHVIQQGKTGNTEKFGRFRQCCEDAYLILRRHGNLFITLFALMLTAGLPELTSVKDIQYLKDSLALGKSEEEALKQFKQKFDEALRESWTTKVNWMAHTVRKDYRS
T6 sequence (P27986 whole entry partner): as the sequence (P27986 whole entry partner) above

[3] = Table 2, Jurkat cell lysate, read-out: Inhibition values (IC50) DNAPK
[4] = Table 4, read-out: Inhibition values (IC50) DNAPK
[5] = Table 2, Jurkat cell lysate, read-out: Inhibition values (IC50) mTor
[6] = Table 4, read-out: Inhibition values (IC50) mTOR
[7] = Table 2, Jurkat cell lysate, read-out: Inhibition values (IC50) PI3Kd
[8] = Table 4, read-out: Inhibition values (IC50) PI3Kd

SMILES | IC50 [1, 3] [µM] | IC50 [1, 4] [µM] | IC50 (mTOR; [5]) [µM] | IC50 (mTOR; [6]) [µM] | IC50 (PI3Kα) [µM] | IC50 (PI3Kγ) [µM] | IC50 [2] [µM] | IC50 (PI3K delta (PI3Kd); [7]) [µM] | IC50 (PI3K delta (PI3Kd); [8]) [µM] | IC50 (PI3Kβ) [µM]
CC(O)CNC(=O)Nc1ccc(-c2cc(-c3cc(F)ccc3S(C)(=O)=O)nc(N3CCOC[C@@H]3C)n2)cc1 (stereo partly drawn) [Example 71, 1-(4-(6-(5-fluoro-2-(methylsulfonyl)phenyl)-2-((S)-3-methylmorpholino)pyrimidin-4-yl)phenyl)-3-(2-hydroxypropyl)urea] | ≥ 10 | ≥ 10 | 0.1 to 1 | 0.1 to 1 | ≥ 10 | ≥ 10 | < 0.1 | ≥ 10 | ≥ 10 | ≥ 10
C[C@H]1COCCN1c1cc(-c2cc(F)ccc2S(C)(=O)=O)nc(-c2ccc(NC(=O)NCCO)cc2F)n1 [Example 72, (S)-1-(3-fluoro-4-(4-(5-fluoro-2-(methylsulfonyl)phenyl)-6-(3-methylmorpholino)pyrimidin-2-yl)phenyl)-3-(2-hydroxyethyl)urea] | ≥ 10 | ≥ 10 | 0.1 to 1 | 0.1 to 1 | ≥ 10 | ≥ 10 | 0.1 to 1 | ≥ 10 | ≥ 10 | ≥ 10
C[C@H](CO)NC(=O)Nc1ccc(-c2cc(-c3cc(F)ccc3S(C)(=O)=O)nc(N3CCOC[C@@H]3C)n2)cc1 [Example 73, 1-(4-(6-(5-fluoro-2-(methylsulfonyl)phenyl)-2-((S)-3-methylmorpholino)pyrimidin-4-yl)phenyl)-3-((R)-1-hydroxypropan-2-yl)urea] |  | ≥ 10 |  | 0.1 to 1 | ≥ 10 | ≥ 10 | < 0.1 |  | ≥ 10 | ≥ 10
C[C@H]1COCCN1c1nc(-c2ccc(NC(=O)NC3(CO)CCC3)cc2)cc(-c2cc(F)ccc2S(C)(=O)=O)n1 [Example 75, (S)-1-(4-(6-(5-fluoro-2-(methylsulfonyl)phenyl)-2-(3-methylmorpholino)pyrimidin-4-yl)phenyl)-3-(1-(hydroxymethyl)cyclobutyl)urea] |  | ≥ 10 |  | 0.1 to 1 | ≥ 10 | ≥ 10 | 0.1 to 1 |  | ≥ 10 | ≥ 10
COC1CC(NC(=O)Nc2ccc(-c3cc(-c4cc(F)ccc4S(C)(=O)=O)nc(N4CCOC[C@@H]4C)n3)cc2)C1 (stereo partly drawn) [Example 79, (S)-1-(4-(6-(5-fluoro-2-(methylsulfonyl)phenyl)-2-(3-methylmorpholino)pyrimidin-4-yl)phenyl)-3-(3-methoxycyclobutyl)urea] |  | ≥ 10 |  | 1 to 10 | ≥ 10 | ≥ 10 | 0.1 to 1 |  | ≥ 10 | ≥ 10
C[C@H]1COCCN1c1cc(-c2ccccc2S(C)(=O)=O)nc(-c2ccc(NC(=O)NCCO)cc2)n1 [Example 80, (S)-1-(2-hydroxyethyl)-3-(4-(4-(3-methylmorpholino)-6-(2-(methylsulfonyl)phenyl)pyrimidin-2-yl)phenyl)urea] |  | ≥ 10 |  | < 0.1 | ≥ 10 | ≥ 10 | < 0.1 |  | ≥ 10 | ≥ 10
CS(=O)(=O)c1ccc(F)cc1-c1cc(-c2ccc(NC(=O)NC3CC3)cc2)nc(N2CC3CCC(C2)O3)n1 [Example 81, 1-(4-(2-(8-oxa-3-azabicyclo[3.2.1]octan-3-yl)-6-(5-fluoro-2-(methylsulfonyl)phenyl)pyrimidin-4-yl)phenyl)-3-cyclopropylurea] |  | ≥ 10 |  | 0.1 to 1 | ≥ 10 | ≥ 10 | < 0.1 |  | ≥ 10 | ≥ 10
C[C@@H](O)CNC(=O)Nc1ccc(-c2cc(-c3cc(F)ccc3S(C)(=O)=O)nc(N3CCOC[C@@H]3C)n2)cc1 [Example 82] |  | ≥ 10 |  | 1 to 10 | ≥ 10 | ≥ 10 | < 0.1 |  | ≥ 10 | ≥ 10
C[C@H](O)CNC(=O)Nc1ccc(-c2cc(-c3cc(F)ccc3S(C)(=O)=O)nc(N3CCOC[C@@H]3C)n2)cc1 [Example 83, 1-(4-(6-(5-fluoro-2-(methylsulfonyl)phenyl)-2-((S)-3-methylmorpholino)pyrimidin-4-yl)phenyl)-3-((S)-2-hydroxypropyl)urea] |  | ≥ 10 |  | 0.1 to 1 | ≥ 10 | ≥ 10 | < 0.1 |  | ≥ 10 | ≥ 10
C[C@H]1COCCN1c1nc(-c2ccc(NC(=O)NCCN)cc2)cc(-c2cc(F)ccc2S(C)(=O)=O)n1 [Example 84, (S)-1-(2-aminoethyl)-3-(4-(6-(5-fluoro-2-(methylsulfonyl)phenyl)-2-(3-methylmorpholino)pyrimidin-4-yl)phenyl)urea] |  | ≥ 10 |  | 0.1 to 1 | ≥ 10 | ≥ 10 | 1 to 10 |  | ≥ 10 | ≥ 10
C[C@H]1COCCN1c1nc(-c2ccc(NC(=O)NC3COC3)cc2)cc(-c2cc(F)ccc2S(C)(=O)=O)n1 [Example 86, (S)-1-(4-(6-(5-fluoro-2-(methylsulfonyl)phenyl)-2-(3-methylmorpholino)pyrimidin-4-yl)phenyl)-3-(oxetan-3-yl)urea] |  | ≥ 10 |  | 0.1 to 1 | ≥ 10 | ≥ 10 | 0.1 to 1 |  | ≥ 10 | ≥ 10
CCS(=O)(=O)c1ccccc1-c1cc(-c2ccc(NC(=O)NC3CC3)cc2)nc(N2CCOC[C@@H]2C)n1 [Example 87, (S)-1-cyclopropyl-3-(4-(6-(2-(ethylsulfonyl)phenyl)-2-(3-methylmorpholino)pyrimidin-4-yl)phenyl)urea] |  | ≥ 10 |  | 0.1 to 1 | ≥ 10 | ≥ 10 | < 0.1 |  | ≥ 10 | ≥ 10
C[C@H]1COCCN1c1nc(-c2ccc(NC(=O)NC3CC3)cc2)cc(-c2ccccc2S(=O)(=O)N2CCCC2)n1 [Example 88, (S)-1-cyclopropyl-3-(4-(2-(3-methylmorpholino)-6-(2-(pyrrolidin-1-ylsulfonyl)phenyl)pyrimidin-4-yl)phenyl)urea] |  | ≥ 10 |  | 1 to 10 | ≥ 10 | ≥ 10 | < 0.1 |  | ≥ 10 | ≥ 10
